Data as given in patent US9326973B2, “Hepatitis C virus inhibitors” (priority 2012, dated 2016).
Like-named read-outs stand apart in the source and are kept apart here.

System: HCV replicon, genotype-1a variant with glutamine 30 changed to glutamate in the NS5A protein
Assay: microbe, parasite or virus in culture
Type: cell-based, HCV genotype 1a
Settings: for Fold-Synergistic 1a (Q30E): HCV replicon genotype 1a Q30E (Q→E) variant, test compound titrated with an NS5A-targeting compound (BMS-790052 fixed at 200 nM), ranking of synergist activity; for EC50: Hepatitis C virus, genotype 1a Q30E replicon
Text: The NS5A synergistic inhibitory effect of test compounds can be determined using various amounts of an NS5A-targeting compound with titration of a second compound of interest. […] In one embodiment, the HCV genotype strain can be genotype 1a containing a change at amino acid 30 of the NS5A protein consisting of glutamine to glutamate. The test compound can be chosen from compounds listed above or from others present in the literature.

| Structure (SMILES) | Fold-Synergistic 1a (Q30E) | other results |
| --- | --- | --- |
| CC(C)C(N[S+]([O-])C(C)(C)C)c1ncc(-c2ccc(-c3ccc(-c4cnc([C@@H](N[S+]([O-])C(C)(C)C)C(C)C)[nH]4)cc3)cc2)[nH]1 (single isomer, unassigned) [Compound Y-61] | <10 fold | – |
| COC(=O)N[C@H](C(=O)N1CCC[C@H]1c1nc(-c2ccc(-c3ccc(-c4c[nH]c([C@@H]5CCCN5C(=O)[C@@H](NC(=O)OC)C(C)C)n4)cc3)cc2)c[nH]1)C(C)C [BMS-790052, reference compound] | – | reciprocal synergistic inhibitory effect for the combination: ~100 fold; EC50 (P-55 fixed at 200 nM, read-out: EC50 of BMS-790052 in the presence of a fixed amount of P-55): ~2 nM; EC50 (compound alone, read-out: EC50, titrated singly): ~200 nM |
| CC(C)(C)[C@H](NC(=O)C1(C2(O)CCOCC2)CCC1)c1ncc(-c2ccc(-c3ccc(-c4cnc([C@@H](NC(=O)C5(C6(O)CCOCC6)CCC5)C(C)(C)C)[nH]4)cc3)cc2)[nH]1 [Compound B84] | >100 fold | – |
| CN(C)C(=N[C@H](c1ncc(-c2ccc(-c3ccc(-c4cnc([C@@H](NC(=O)C5(C6(O)CCOCC6)CCC5)C(C)(C)C)[nH]4)cc3)cc2)[nH]1)C(C)(C)C)N(C)C [Compound B85] | >10 fold | – |
| CC(C)(C)[C@H](NCC1CCCCC1)c1nc(-c2ccc(-c3ccc(-c4c[nH]c([C@@H](NCC5CCCCC5)C(C)(C)C)n4)cc3)cc2)c[nH]1 [Compound L-2] | >100 fold | – |
| CC(C)(C)[C@H](NC(=O)[C@H]1COC(=O)N1)c1nc(-c2ccc(-c3ccc(-c4c[nH]c([C@@H](NC(=O)[C@H]5COC(=O)N5)C(C)(C)C)n4)cc3)cc2)c[nH]1 [Compound L-9] | >10 fold | – |
| CC(C)(C)[C@H](NC(=O)[C@@H]1CCC(=O)N1)c1nc(-c2ccc(-c3ccc(-c4c[nH]c([C@@H](NC(=O)[C@@H]5CCC(=O)N5)C(C)(C)C)n4)cc3)cc2)c[nH]1 [Compound L-10] | >10 fold | – |
| CC(=O)N(C)C1(C(=O)N[C@H](c2nc(-c3ccc(-c4ccc(-c5c[nH]c([C@@H](NC(=O)C6(N(C)C(C)=O)CC6)C(C)(C)C)n5)cc4)cc3)c[nH]2)C(C)(C)C)CC1 [Compound L-11] | >100 fold | – |
| CC(=O)N(C)C1(C(=O)N[C@H](c2nc(-c3ccc(-c4ccc(-c5c[nH]c([C@@H](NC(=O)C6(N(C)C(C)=O)CCC6)C(C)(C)C)n5)cc4)cc3)c[nH]2)C(C)(C)C)CCC1 [Compound L-12] | >100 fold | – |
| CN(C(=O)OC(C)(C)C)C1(C(=O)N[C@H](c2nc(-c3ccc(-c4ccc(-c5c[nH]c([C@@H](NC(=O)C6(N(C)C(=O)OC(C)(C)C)CC6)C(C)(C)C)n5)cc4)cc3)c[nH]2)C(C)(C)C)CC1 [Compound L-13] | >100 fold | – |
| CN(C(=O)OC(C)(C)C)C1(C(=O)N[C@H](c2nc(-c3ccc(-c4ccc(-c5c[nH]c([C@@H](NC(=O)C6(N(C)C(=O)OC(C)(C)C)CCC6)C(C)(C)C)n5)cc4)cc3)c[nH]2)C(C)(C)C)CCC1 [Compound L-14] | >100 fold | – |
| CC(C)(C)OC(=O)N1CCC[C@]1(C)C(=O)N[C@H](c1nc(-c2ccc(-c3ccc(-c4c[nH]c([C@@H](NC(=O)[C@@]5(C)CCCN5C(=O)OC(C)(C)C)C(C)(C)C)n4)cc3)cc2)c[nH]1)C(C)(C)C [Compound L-15] | >100 fold | – |
| CC(C)(C)OC(=O)N1CCCC[C@@H]1C(=O)N[C@H](c1nc(-c2ccc(-c3ccc(-c4c[nH]c([C@@H](NC(=O)[C@H]5CCCCN5C(=O)OC(C)(C)C)C(C)(C)C)n4)cc3)cc2)c[nH]1)C(C)(C)C [Compound L-16] | >100 fold | – |
| CC(C)(C)OC(=O)N1CCCC[C@H]1C(=O)N[C@H](c1nc(-c2ccc(-c3ccc(-c4c[nH]c([C@@H](NC(=O)[C@@H]5CCCCN5C(=O)OC(C)(C)C)C(C)(C)C)n4)cc3)cc2)c[nH]1)C(C)(C)C [Compound L-17] | >100 fold | – |
| COC(=O)N1CCC[C@@]1(C)C(=O)N[C@H](c1nc(-c2ccc(-c3ccc(-c4c[nH]c([C@@H](NC(=O)[C@]5(C)CCCN5C(=O)OC)C(C)(C)C)n4)cc3)cc2)c[nH]1)C(C)(C)C [Compound L-23] | >100 fold | – |
| CCC(CC)(NC(=O)OC(C)(C)C)C(=O)N[C@H](c1nc(-c2ccc(-c3ccc(-c4c[nH]c([C@@H](NC(=O)C(CC)(CC)NC(=O)OC(C)(C)C)C(C)(C)C)n4)cc3)cc2)c[nH]1)C(C)(C)C [Compound L-24] | >100 fold | – |
| CC(C)(C)[C@H](NC(=O)CN1CCOC1=O)c1nc(-c2ccc(-c3ccc(-c4c[nH]c([C@@H](NC(=O)CN5CCOC5=O)C(C)(C)C)n4)cc3)cc2)c[nH]1 [Compound L-25] | >10 fold | – |
| CC(C)(C)[C@H](NC(=O)C1(N2CCOC2=O)CC1)c1nc(-c2ccc(-c3ccc(-c4c[nH]c([C@@H](NC(=O)C5(N6CCOC6=O)CC5)C(C)(C)C)n4)cc3)cc2)c[nH]1 [Compound L-26] | >100 fold | – |

| Structure (SMILES) | Fold-Synergistic 1a (Q30E) | other results |
| --- | --- | --- |
| CC(CF)(CF)OC(=O)NC1(C(=O)N[C@H](c2nc(-c3ccc(-c4ccc(-c5c[nH]c([C@@H](NC(=O)C6(NC(=O)OC(C)(CF)CF)CC6)C(C)(C)C)n5)cc4)cc3)c[nH]2)C(C)(C)C)CC1 [Compound L-27] | >100 fold | – |
| CC(C)(C)[C@H](NC(=O)C1(OC(=O)N2CCCCC2)CC1)c1nc(-c2ccc(-c3ccc(-c4c[nH]c([C@@H](NC(=O)C5(OC(=O)N6CCCCC6)CC5)C(C)(C)C)n4)cc3)cc2)c[nH]1 [Compound L-28] | >100 fold | – |
| CN(C)C(=O)OC1(C(=O)N[C@H](c2nc(-c3ccc(-c4ccc(-c5c[nH]c([C@@H](NC(=O)C6(OC(=O)N(C)C)CC6)C(C)(C)C)n5)cc4)cc3)c[nH]2)C(C)(C)C)CC1 [Compound L-29] | >100 fold | – |
| COC(=O)N(C)C1(C(=O)N[C@H](c2nc(-c3ccc(-c4ccc(-c5c[nH]c([C@@H](NC(=O)C6(N(C)C(=O)OC)CC6)C6(C)CC6)n5)cc4)cc3)c[nH]2)C2(C)CC2)CC1 [Compound L-30] | >100 fold | – |
| CC(C)(C)[C@H](NC(=O)C1(N2CCOCC2)CC1)c1nc(-c2ccc(-c3ccc(-c4c[nH]c([C@@H](NC(=O)C5(N6CCOCC6)CC5)C(C)(C)C)n4)cc3)cc2)c[nH]1 [Compound L-31] | >100 fold | – |
| CC(C)(C)[C@H](NC(=O)C1(n2cncn2)CC1)c1nc(-c2ccc(-c3ccc(-c4c[nH]c([C@@H](NC(=O)C5(n6cncn6)CC5)C(C)(C)C)n4)cc3)cc2)c[nH]1 [Compound L-33] | >100 fold | – |
| CCN(CC(F)(F)F)C(=O)C(=O)N[C@H](c1nc(-c2ccc(-c3ccc(-c4c[nH]c([C@@H](NC(=O)C(=O)N(CC)CC(F)(F)F)C5CC5)n4)cc3)cc2)c[nH]1)C1CC1 [Compound L-35] | >100 fold | – |
| CC(C)N(C(=O)C(=O)N[C@H](c1nc(-c2ccc(-c3ccc(-c4c[nH]c([C@@H](NC(=O)C(=O)N(C(C)C)C5CC5)C5CC5)n4)cc3)cc2)c[nH]1)C1CC1)C1CC1 [Compound L-36] | >100 fold | – |
| O=C(N[C@H](c1nc(-c2ccc(-c3ccc(-c4c[nH]c([C@@H](NC(=O)C(=O)N5CCC(F)(F)CC5)C5CC5)n4)cc3)cc2)c[nH]1)C1CC1)C(=O)N1CCC(F)(F)CC1 [Compound L-37] | >100 fold | – |
| CC(C)N(C(=O)OC1(C(=O)N[C@H](c2nc(-c3ccc(-c4ccc(-c5c[nH]c([C@@H](NC(=O)C6(OC(=O)N(C(C)C)C(C)C)CC6)C(C)(C)C)n5)cc4)cc3)c[nH]2)C(C)(C)C)CC1)C(C)C [Compound L-38] | >100 fold | – |
| CC(C)N(C(=O)OC1(C(=O)N[C@H](c2nc(-c3ccc(-c4ccc(-c5c[nH]c([C@@H](NC(=O)C6(OC(=O)N(C(C)C)C(C)C)CC6)C6(C)CC6)n5)cc4)cc3)c[nH]2)C2(C)CC2)CC1)C(C)C [Compound L-39] | >100 fold | – |
| C[C@@H](OC(=O)NC1(C(=O)N[C@H](c2nc(-c3ccc(-c4ccc(-c5c[nH]c([C@@H](NC(=O)C6(NC(=O)O[C@H](C)C(F)(F)F)CC6)C6(C)CC6)n5)cc4)cc3)c[nH]2)C2(C)CC2)CC1)C(F)(F)F [Compound L-42] | >100 fold | – |
| COC(=O)N1CCC(F)(F)C[C@H]1C(=O)N[C@H](c1nc(-c2ccc(-c3ccc(-c4c[nH]c([C@@H](NC(=O)[C@@H]5CC(F)(F)CCN5C(=O)OC)C(C)(C)C)n4)cc3)cc2)c[nH]1)C(C)(C)C [Compound L-43] | >100 fold | – |
| C[C@@H](OC(=O)N(C)C1(C(=O)N[C@H](c2nc(-c3ccc(-c4ccc(-c5c[nH]c([C@@H](NC(=O)C6(N(C)C(=O)O[C@H](C)C(F)(F)F)CC6)C(C)(C)C)n5)cc4)cc3)c[nH]2)C(C)(C)C)CC1)C(F)(F)F [Compound L-44] | >100 fold | – |
| CC1(C(=O)N[C@H](c2nc(-c3ccc(-c4ccc(-c5c[nH]c([C@@H](NC(=O)C6(C)CC6)C(C)(C)C)n5)cc4)cc3)c[nH]2)C(C)(C)C)CC1 [Compound L-45] | >100 fold | – |
| CC(C)(C)OC(=O)N1CCCCC1(C)C(=O)N[C@H](c1nc(-c2ccc(-c3ccc(-c4c[nH]c([C@@H](NC(=O)C5(C)CCCCN5C(=O)OC(C)(C)C)C(C)(C)C)n4)cc3)cc2)c[nH]1)C(C)(C)C (stereo partly drawn) [Compound L-46a] | >100 fold | – |
| CC(C)(C)OC(=O)NC1(C(=O)N[C@H](c2nc(-c3ccc(-c4ccc(-c5c[nH]c([C@@H](NC(=O)C6(NC(=O)OC(C)(C)C)CCC(F)(F)CC6)C(C)(C)C)n5)cc4)cc3)c[nH]2)C(C)(C)C)CCC(F)(F)CC1 [Compound L-49] | >100 fold | – |
